In patent US10039806B2, “Methods and compositions for treating antiprogestin-resistant cancers” (Fundación Sales, priority 2011, dated 2018):
Read-outs that look alike come from different tables or passages of the source.

Experiments:
GR = GR (Homo sapiens, UniProt P04150); conditions: cited from earlier work
PR [1] = molecular target: T1, PR (Homo sapiens, UniProt P06401); conditions: cited from earlier work
T1 sequence (P06401 1-933): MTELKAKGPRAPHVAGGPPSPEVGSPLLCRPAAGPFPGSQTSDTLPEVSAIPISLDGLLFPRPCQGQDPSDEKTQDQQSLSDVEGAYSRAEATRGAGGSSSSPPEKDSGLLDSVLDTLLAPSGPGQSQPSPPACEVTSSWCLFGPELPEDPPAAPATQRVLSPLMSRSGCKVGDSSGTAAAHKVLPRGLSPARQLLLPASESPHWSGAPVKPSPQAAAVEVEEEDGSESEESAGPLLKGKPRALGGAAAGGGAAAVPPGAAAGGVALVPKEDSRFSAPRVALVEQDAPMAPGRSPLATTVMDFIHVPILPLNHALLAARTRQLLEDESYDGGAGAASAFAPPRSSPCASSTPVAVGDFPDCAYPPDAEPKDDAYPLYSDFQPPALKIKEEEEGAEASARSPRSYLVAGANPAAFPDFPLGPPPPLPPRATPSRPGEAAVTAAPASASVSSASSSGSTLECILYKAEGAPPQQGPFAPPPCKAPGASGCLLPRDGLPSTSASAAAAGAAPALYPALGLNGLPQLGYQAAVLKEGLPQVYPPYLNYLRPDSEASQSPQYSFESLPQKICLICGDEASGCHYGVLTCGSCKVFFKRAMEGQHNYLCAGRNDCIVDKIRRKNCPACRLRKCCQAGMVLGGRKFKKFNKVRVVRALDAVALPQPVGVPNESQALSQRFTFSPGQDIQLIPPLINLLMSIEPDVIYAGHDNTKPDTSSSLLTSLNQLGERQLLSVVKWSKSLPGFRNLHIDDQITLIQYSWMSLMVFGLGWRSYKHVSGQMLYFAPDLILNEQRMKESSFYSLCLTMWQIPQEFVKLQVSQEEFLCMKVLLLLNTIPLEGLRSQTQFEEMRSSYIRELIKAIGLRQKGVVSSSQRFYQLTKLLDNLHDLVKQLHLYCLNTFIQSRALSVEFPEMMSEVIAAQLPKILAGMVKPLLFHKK

HI-responsive tumors [2] = assay: MPA breast cancer model, HI-responsive tumors in vivo; parameters: species or system mouse
glucocorticoid receptor = molecular target: T2, glucocorticoid receptor (Homo sapiens, UniProt P04150); conditions: cited from earlier work
T2 sequence (P04150 1-777): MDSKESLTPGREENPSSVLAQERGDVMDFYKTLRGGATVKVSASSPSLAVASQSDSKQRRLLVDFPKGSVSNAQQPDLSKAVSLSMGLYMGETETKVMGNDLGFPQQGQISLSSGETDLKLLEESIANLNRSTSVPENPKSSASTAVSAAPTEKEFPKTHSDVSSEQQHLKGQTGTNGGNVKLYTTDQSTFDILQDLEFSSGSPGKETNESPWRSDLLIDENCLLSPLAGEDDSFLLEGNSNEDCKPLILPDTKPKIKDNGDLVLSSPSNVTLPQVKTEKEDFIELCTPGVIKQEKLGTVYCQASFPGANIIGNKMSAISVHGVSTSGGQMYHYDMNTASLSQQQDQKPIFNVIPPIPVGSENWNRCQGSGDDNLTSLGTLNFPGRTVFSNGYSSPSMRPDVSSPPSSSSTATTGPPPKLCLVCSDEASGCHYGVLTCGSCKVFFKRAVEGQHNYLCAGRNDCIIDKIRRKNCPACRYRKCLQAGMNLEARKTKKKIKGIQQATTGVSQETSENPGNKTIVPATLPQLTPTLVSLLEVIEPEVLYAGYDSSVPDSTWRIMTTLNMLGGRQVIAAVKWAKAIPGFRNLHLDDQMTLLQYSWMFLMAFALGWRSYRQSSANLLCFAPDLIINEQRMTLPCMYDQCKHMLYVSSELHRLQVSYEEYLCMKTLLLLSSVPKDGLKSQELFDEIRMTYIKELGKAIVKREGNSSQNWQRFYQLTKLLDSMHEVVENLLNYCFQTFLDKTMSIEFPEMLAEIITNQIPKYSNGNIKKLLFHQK

T61 human tumors = conditions: in vivo; cited from earlier work
breast cancer = conditions: cited from earlier work
T47D cells = conditions: cited from earlier work
MCF-7 xenografts = conditions: MIF 50 mg/kg/day, ONA 30 mg/kg/day, 17 days; cited from earlier work
[3] = test system: DMBA-induced mammary tumors; conditions: cited from earlier work
PR [4] = molecular target: T1, PR; conditions: cited from earlier work; remark: listed apart in the source
[5] = test system: primary cultures of responsive tumors; conditions: 1-100 nM; cited from earlier work
HI-responsive tumors [6] = conditions: cited from earlier work; for therapeutic effects: murine mammary carcinomas with increased PR-A/PR-B
[7] = test system: MXT mouse model of breast cancer; conditions: cited from earlier work
MCF-7 cells = conditions: 10 nM; 10% steroid-deficient human serum; cited from earlier work
[8] = test system: epithelial cells from breast cancer samples; assay: Primary cultures from breast cancer samples: cell number or Ki67; type: cell-based, human; conditions: 10^-8 M, one week; 3 out of 8 cases; p<0.05
From the text: The samples were obtained at surgery from patients diagnosed with breast cancer at the […]. de Martinez Hospital from General Pacheco and at the […] Hospital of Buenos Aires after signing the informed consent (n=70; median age 55 year). Protocols were approved by the Institutional Ethical Review Board. Whenever possible, one piece of the sample was kept in dry ice immediately after surgery and another piece was kept in culture medium and transported to IBYME. Tumor samples were processed by mechanical and enzymatic degradation and epithelial cells were purified by differential sedimentation techniques (7). The epithelial cells were cultured with DMEM/F12 medium plus 10% fetal calf serum (FCS). Once the cultures were overcrowded, they were subcultured and equal numbers of cells were seeded in 24 well plates. […] OH-Tamoxifen was also used as a control. After one week of treatment, the cells were trypsinized and the total number of cells in each well was counted or alternatively, they were fixed to evaluate the Ki67 (proliferation marker) expression by IHC. In several cases in which there were carcinoma associated fibroblasts intermingled with the epithelial cells, a double staining of Ki67 and cytokeratin (CK) was performed to consider the proliferating cells among the total number of epithelial cells (CK+). An inhibitory index was calculated for each tumor.

C4-HI cells = assay: (3H)-thymidine uptake, primary cultures of purified epithelial cells; type: cell-based, mouse; conditions: 48 h, with MPA; P<0.001
Experimental: (§1) Epithelial cells and carcinoma-associated fibroblasts were separated by differential sedimentation and plated with 10% FCS. Carcinoma-associated fibroblasts were allowed to attach for 0.5 h and the epithelial cells for 24-48 h. The medium was replaced by fresh medium with 10% FCS; thereafter, it was changed every 2-3 days.
(§2) (3H)-thymidine-uptake was used as an indirect method to evaluate cell proliferation. In brief, cells were seeded into 96-well microplates. After attachment (24 h), the cells were incubated for 24 h with 1% steroid-stripped FCS and then for 48 h with the experimental solutions to be tested in 1% chFCS. Fifty percent of the medium was replaced with fresh medium every 24 h. The cells were incubated with 0.4 μCi of 3H-thymidine (specific activity: 20 Ci/mmol) for 24 h, trypsinized, and harvested in a cell harvester. In experiments in which 5azadC was used, the experiments were carried out using proliferating cells (presence of 10% FCS) to guarantee the effect of the demethylating agent. Three different experiments were made using octuplicates, and the means and standard deviations of one representative experiment of the other three are shown. The results are expressed as the proliferation index (cpm […] experimental group/cpm control; mean±SEM).

C4-HIR cells = assay: as above; type: cell-based, mouse; conditions: 48 h, with MPA; P<0.001
Experimental: as §1, §2

In the case of `C/C=C\[C@]1(O)CC[C@H]2[C@@H]3CCC4=CC(=O)CCC4=C3[C@@H](c3ccc(N(C)C)cc3)C[C@@]21C` [Aglepristone], the GR affinity (GR) is given as “lower affinity”, the PR affinity (PR [1]) is given as “high affinity” and the tumor regression (HI-responsive tumors [2]; 3 mg/week, unpublished data) is given as “regress”.

For `CC(=O)O[C@]1(C(C)=O)CC[C@H]2[C@@H]3CCC4=CC(=O)CCC4=C3[C@@H](c3ccc(N(C)C)cc3)C[C@@]21C` [CDB-2914], the antiglucocorticoid activity (glucocorticoid receptor) is given as “less than that of MIF”.

For `COCC(=O)[C@@]1(OC(C)=O)CC[C@H]2[C@@H]3CCC4=CC(=O)CCC4=C3[C@@H](c3ccc(N(C)C)cc3)C[C@@]21C` [CDB-4124], the antiglucocorticoid activity (glucocorticoid receptor) is given as “less than that of MIF”.

For `C[C@]12CC[C@@H]3c4ccc(O)cc4CC[C@H]3[C@@H]1CC[C@@H]2O` [E2, 17-β-Estradiol], the tumor regression (HI-responsive tumors [2]; 0.5-5 mg) is listed as “regress” and the tumor growth (T61 human tumors) is listed as “induces tumor regression”.

In the case of `CN(C)c1ccc([C@H]2C[C@]3(C)[C@@H](CC[C@]3(O)CCCO)[C@@H]3CCC4=CC(=O)CCC4=C32)cc1` [ONA, onapristone], the partial response (breast cancer; 19 patients) is listed as 56%, the stable disease (breast cancer; 19 patients) is listed as 11% and the reason for discontinuation (breast cancer; human, in vivo) is listed as “hepatotoxicity”. For the same compound, the “reason for stopping the trial” value (breast cancer; human, in vivo) was “liver function test abnormalities”, the “effects on T47D cells” value (T47D cells; 5% FCS) was “inhibitory effects” and the “E2-induced proliferation of xenografts” value (MCF-7 xenografts) was “inhibited”. For the same compound, the “efficacy compared with MIF” value ([3]; same doses) was “more efficacious than MIF”, the “effect in cells treated with analogs of cyclic AMP” value (PR [4]; T47D cells transfected with MMTV-CAT) was “still behaved as an antagonist” and the “MPA-induced or FGF2-induced cell proliferation” value [5] was “inhibited MPA-induced or FGF2-induced cell proliferation”. For the same compound, the tumor regression (HI-responsive tumors [6]; daily doses of 10 mg/kg) was “regress”, the tumor regression (HI-responsive tumors [6]; mouse, in vivo) was “induced tumor regression” and the therapeutic effects (HI-responsive tumors [6]) was “excellent therapeutic effects”. The antiglucocorticoid activity (glucocorticoid receptor) was “antiglucocorticoid effects at higher concentrations”, the tumor growth (T61 human tumors) was “has no effect” and the “inhibition of cell proliferation compared with MIF” value ([7]; 10 mg/kg/day) was “better than MIF at inhibiting cell proliferation”. For the same compound, the “tumor take and stimulatory effects of E2 and MPA” value ([7]; 1 or 10 mg/kg/day from one day post-transplantation) was “inhibited both tumor take and the stimulatory effects of E2 and MPA”.

For `C[C@@H]1C[C@@H]2C(=C3CCC(=O)C=C31)[C@@H](c1ccc(N(C)C)cc1)C[C@@]1(C)[C@H]2CC[C@@]12CCCO2` [Org 31710], the “efficacy compared with MIF” value ([3]; p.o.) is given as “more effective than MIF”.

In the case of `C[C@H]1CC2=CC(=O)CCC2=C2[C@@H]1[C@@H]1CC[C@@]3(CCCO3)[C@@]1(C)C[C@@H]2c1ccc(N(C)C)cc1` [Org 31806], the “efficacy compared with MIF” value ([3]; p.o.) is given as “more effective than MIF”.

In the case of `CCC(=O)[C@@]1(C)CC[C@H]2[C@@H]3CCC4=CC(=O)CCC4=C3CC[C@@]21C` [R5020], the “proliferation of T47D and MCF-7 cells” value (T47D cells; MIF at micromolar concentrations) is listed as “stimulate the proliferation”.

In the case of `CC/C(=C(\c1ccccc1)c1ccc(OCCN(C)C)cc1)c1ccccc1` [Tamoxifen, tamoxifen], the E2-induced cell proliferation (T47D cells; clone 11, ER- and PR-positive) is given as “specifically inhibit E2-induced cell proliferation”, the E2-induced cell proliferation (MCF-7 cells) is given as “inhibited E2-induced cell proliferation” and the “PR (and ER) expression” value ([3]; rat, in vivo) is given as “increased PR expression”. The “number of cells as compared to the controls” value [8] was “significant decrease in the number of cells”, the tumor growth (HI-responsive tumors [2]; mouse, in vivo) was “tumor growth was inhibited” and the tumor growth (T61 human tumors) was “inhibits tumor growth”.

In the case of `CC#C[C@]1(O)CC[C@H]2[C@@H]3CCC4=CC(=O)CCC4=C3[C@@H](c3ccc(C(C)=O)cc3)C[C@@]21C` [ZK 112993], the tumor growth (T61 human tumors) is listed as “significantly inhibits the growth”.

For `CC(=O)c1ccc([C@H]2C[C@@]3(C)[C@@H](CC[C@@]3(O)C(F)(F)C(F)(F)F)[C@@H]3CCC4=CC(=O)CCC4=C32)cc1` [ZK 230211, lonaprisan], the apoptosis (T47D cells; 10 nM) is listed as “induces apoptosis”, the “effect on PKA-activated PR-B” value (PR [4]) is listed as “no effect on PKA-activated PR-B” and the “MPA-induced or FGF2-induced cell proliferation” value [5] is listed as “inhibited MPA-induced or FGF2-induced cell proliferation”. For the same compound, the tumor regression (HI-responsive tumors [6]; daily doses of 10 mg/kg) was “regress”, the tumor regression (HI-responsive tumors [6]; mouse, in vivo) was “induced tumor regression” and the therapeutic effects (HI-responsive tumors [6]) was “excellent therapeutic effects”. The MPA-induced proliferative effect (C4-HI cells) was “abolished”, the MPA-induced proliferative effect (C4-HIR cells) was “abolished” and the antiglucocorticoid activity (glucocorticoid receptor) was “low antiglucocorticoid activity”.
